In patent US20130253048A1, “Pharmaceutical Composition for Promoting Osteogenesis Containing Axial-equatorial Aryl-oriented Furofuran-type Lignan, and Pharmaceutical Preparation, Functional Food Product, and Health Food Product Comprising Composition” (ERINA CO., INC., priority 2010, published 2013):

Tested on: ovariectomized mouse (type I osteoporosis model animal)
Experiment: Change of bone mass in type I osteoporosis model animal (ovariectomized mice, dosing 3 months, femur pQCT)
Format: in vivo
Conditions: for Bone density Cancellous bone, relative value / Bone density whole bone, relative value / Cortical bone Bone density, relative value / Cortical bone Bone thickness, relative value / Cortical bone adventitia diameter, relative value / Cortical bone lining membrane diameter, relative value / Polar axis bone strength, relative value (Table 3): Sham group = 100; for Polar axis strength (polar coordinates strength): SSI from pQCT; for Bone density Cancellous bone / Bone density whole bone: right femur, pQCT
Excerpt: Female Slc: ddy mice of 4 weeks old (Japan SLC, Inc.) was operated with ovariectomy to use as a type I osteoporosis model animal. Also, in order to delete the affection by invasion, a group which is operated without ovariectomy (Sham operation) is set (Sham group). These were the […] model animals.
Animal bedding were changed twice a week and always to use all fresh one, CRF-1 (Oriental Yeast Co., Ltd.) is fed as feed and deionized water as drinking water were freely given. Their body weights were weighed twice a week by the end of the experiment.
Fargesin was dissolved in 30 mL of a solution (it is referred to as “TD solution”, hereinbelow) containing 4% dimethyl sulfoxide (it is referred to as “DMSO”, hereinbelow) and 4% TWEEN 80 (both were purchased from Wako Pure Chemical Industries, Ltd.) so as that a dosage amount of fargesin becomes 20 mg/kg body wt/day, or […].
After the surgical operation, the mice were adapted to the circumstances for 5 days, and then they were divided to the Sham group, the negative control, the positive control group, and the test substance administration group (6 mice per group). The ovariectomized mice were used for the negative control group, the positive control group, and the test substance administration group.
Fargesin solution was daily administrated to the ovariectomized mice in the test group at the dosage of 20 mg/kg body wt/day (it is referred to as “F20 group”, hereinbelow) or 100 mg/kg body wt/day (it is referred to as “F100 group”, hereinbelow) for 3 month p.o.
In order to study effects of fargesin on the bone, the femur, the largest long bone, was used.
The mice in each group were killed by the cervical dislocation under diethyl ether anesthesia. Their right femurs were excised with muscles, and the muscles were removed from the femur after the excision. Lengths of the excised bones from the mice in the groups were measured, and they were dipped in 70% ethanol to be fixed.
In FIG. 3, the bone was shown schematically. The long bone (tubular bone) was composed of two thick and rounded ends (epiphysis), and thin and long part between them (a shaft). The bone extends to longitudinal direction, depending on the growth of a plate-shape epiphyseal cartilage (a growth plate) between the epiphysis and the shaft. The region of 1 mm proximal side from the A position for a measurement was set to that from 1 mm proximal region (epiphysis) from the distal growth plate as decided as the measurement region.
The bone density was measured by using the peripheral quantitative computed tomography (pQCT, XCT Research SA+, Stratec Medizintechnik GmbH, Merk Ltd) (FIG. 3B). The measurement was performed under the conditions: a diameter of 90 mm, a voxel size of 0.12 mm, a CT speed of 10 mm/sec, and a block number of 1. Bone mineral content (mg/mm), bone density (mg/cm^3), and cross section of the bone (mm^2) of the entire of tomographic images (whole bone area) were calculated.
Next, the area of the cancellous bone was extracted (peel mode 20), and then the bone mineral amount (mg/mm), the section of the bone (mm^2), and the bone density (mg/cm^3) were calculated. Further to the cortical bone, the bone mineral amount (mg/mm), the bone density (mg/cm^3), the section of the bone (mm^2), a bone thickness (mm), the periosteum perimeter of the cortical bone (mm), and the endosteum perimeter of the cortical bone (mm) were calculated.
Based on the bone diameter and the bone density measured by the pQCT, SSI was calculated. SSI is composed of Polar SSI (torsion strength in polar coordination), X-axis SSI (strength in X axis, three-point bending strength), and Y-axis SSI (Y axis strength, three-point lateral bending strength), and it is expressed by the following general equation.
Wherein, Z is the coefficient of the cross section (mm^3), CBD is the bone density of the cortical bone (mg/cm^3), and ND is the physiological bone density (1200 mg/cm^3). The coefficient Z is shown as the following equation.

[1] = F20 group: 20 mg/kg body wt/day p.o.
[2] = F100 group: 100 mg/kg body wt/day p.o.
[3] = OVX mice, F20 group: 20 mg/kg body wt/day p.o., 3 months
[4] = OVX mice, F100 group: 100 mg/kg body wt/day p.o., 3 months

COc1ccc([C@@H]2OC[C@H]3[C@@H]2CO[C@@H]3c2ccc3c(c2)OCO3)cc1OC [fargesin, Fargesin]
Bone density Cancellous bone, relative value [1]: 123.0
Bone density whole bone, relative value [1]: 100.8
Cortical bone Bone density, relative value [1]: (97.4)
Cortical bone Bone thickness, relative value [1]: (91.1)
Cortical bone adventitia diameter, relative value [1]: (105.3)
Cortical bone lining membrane diameter, relative value [1]: (110.8)
Polar axis bone strength, relative value (Table 3) [1]: 104.2
Bone density Cancellous bone, relative value [2]: 131.3
Bone density whole bone, relative value [2]: 102.2
Cortical bone Bone density, relative value [2]: (95.6)
Cortical bone Bone thickness, relative value [2]: (102.5)
Cortical bone adventitia diameter, relative value [2]: (104.2)
Cortical bone lining membrane diameter, relative value [2]: (104.9)
Polar axis bone strength, relative value (Table 3) [2]: 71.6
Cortical bone Bone density [3]: 859.483 ± 2.479 mg/mL
Cortical bone Bone thickness [3]: 0.329 ± 0.026 mm
Cortical bone adventitia diameter [3]: 8.4160 ± 0.116 mm
Cortical bone lining membrane diameter [3]: 6.347 ± 0.160 mm
Polar axis bone strength (Table 3) [3]: 2.005 ± 0.154 mm^3
bone mineral mass, cancellous bone [3]: 0.855±0.067 mg/mm
bone mineral mass, cortical bone [3]: 2.087±0.160 mg/mm
bone mineral mass, whole bone [3]: 3.638±0.164 mg/mm
cross section area of the bone, cortical bone [3]: 2.427±0.185 mm^2
cross section area of the bone, whole bone [3]: 5.643±0.152 mm^2
Polar axis strength (polar coordinates strength) [3]: 1.615±0.090 mm^3
Bone density Cancellous bone [3]: 431.283 ± 30.506 mg/mL
Bone density whole bone [3]: 644.367 ± 20.387 mg/mL
Cortical bone Bone density [4]: 843.55 ± 8.714 mg/mL
Cortical bone Bone thickness [4]: 0.370 ± 0.051 mm
Cortical bone adventitia diameter [4]: 8.3300 ± 0.278 mm
Cortical bone lining membrane diameter [4]: 6.010 ± 0.313 mm
Polar axis bone strength (Table 3) [4]: 1.265 ± 0.147 mm^3
bone cross section, whole bone [4]: 5.550±0.351 mm^2
bone mineral mass, cancellous bone [4]: 0.920±0.102 mg/mm
bone mineral mass, cortical bone [4]: 2.240±0.320 mg/mm
bone mineral mass, whole bone [4]: 3.660±0.326 mg/mm
cross section area of the bone, cortical bone [4]: 2.640±0.361 mm^2
Polar axis strength (polar coordinates strength) [4]: 1.666±0.087 mm^3
Bone density Cancellous bone [4]: 460.500 ± 36.222 mg/mL
Bone density whole bone [4]: 653.300 ± 29.083 mg/mL
